# “And” between values parts separate entries of the source, which are not always exact repeats. Equal values may be shown once.
# Key:
# [1] = system: Ps. aeruginosa; experiment: Two-dimensional microtiter checkerboard, MIC and FIC of EDTA in 50 mM Tris and antibiotics; format: cell-based, Pseudomonas aeruginosa
# Procedure: (§1) Sabath, L. D, Antimicrob. Agents and Chem. 210-217. (1967) and Sparks et al., Vet. Res. Comm. 18, 241-249 (1994), incorporated herein by reference in their entireties. […] Then 0.05 ml of an 18-hour old culture of a test organism, containing 10^6 colony-forming units (CFU) ml, were added to each well. Controls for the culture and media were included in each plate. Plates were covered and incubated at 37° C. for 18-24 hours. […] To generate isobolograms, FICs of the two test solutions were plotted individually on the x-axis and y-axis to determine the effect of combining the two test solutions on bacterial growth. A line that curves away from the zero point and the coordinates indicated antagonism. […] Sabath, L. D, Antimicrob. Agents and Chem. 210-217. (1967), and incorporated herein by reference in their entireties. A numerical score or Fractional Inhibitory Concentration (FIC) index was determined.
# [2] = system: Staph. aureus; experiment: as above; format: cell-based, Staphylococcus aureus
# Procedure: as §1
# [3] = system: Ent. faecalis; experiment: as above; format: cell-based, Enterococcus faecalis
# Procedure: as §1
# [4] = system: surface ulcers of Koi; experiment: Treatment of Koi suffering from surface ulcers (Example 2); format: in vivo, Koi (Cyprinus carpio); conditions: antibiotics injected directly into the fish, before the bath treatment
# Procedure: All fish were housed in a communal “hospital tank” before treatment and moved to an isolation tank after each treatment. The temperature of the bath was adjusted to that of the hospital tank temperature, 24° C., and adequate aeration was supplied to the treatment tank.
# [5] = system: Aeromonas caviae; experiment: MIC and FIC of EDTA in 50 mM Tris and neomycin, Aeromonas isolated from ulcerated fish; format: cell-based; conditions: A. caviae
# Procedure: (§2) Sabath, L. D, Antimicrob. Agents and Chem. 210-217. (1967) and Sparks et al., Vet. Res. Comm. 18, 241-249 (1994), incorporated herein by reference in their entireties.
# (§3) Then 0.05 ml of an 18-hour old culture of a test organism, containing 10^6 colony-forming units (CFU) ml, were added to each well. Controls for the culture and media were included in each plate. Plates were covered and incubated at 37° C. for 18-24 hours.
# (§4) To generate isobolograms, FICs of the two test solutions were plotted individually on the x-axis and y-axis to determine the effect of combining the two test solutions on bacterial growth. A line that curves away from the zero point and the coordinates indicated antagonism. […] Sabath, L. D, Antimicrob. Agents and Chem. 210-217. (1967), and incorporated herein by reference in their entireties.
# (§5) A numerical score or Fractional Inhibitory Concentration (FIC) index was determined. The FIC index is equal to the sum of the values of FIC for the individual drugs: [formula]
# (§6) An FIC index greater than 1.0 indicated an antagonistic interaction, an FIC index of 1.0 indicated addition, and an FIC index of less than or equal to 0.5 indicated synergism between the two test agents.
# [6] = system: Aeromonas sobria; experiment: as above; format: cell-based; conditions: A. sobria
# Procedure: as §2, §3, §4, §5, §6
# [7] = system: Bacillus sp.; experiment: MIC of commercial chemical disinfectants or EDTA-Tris; format: cell-based; conditions: 1 x stock: EDTA-Tris 5 mM EDTA + 50 mM Tris-HCl, Glutracide 1:200, Magnaphen-100 1:400, BioSentry 904 1:256, Synergize 1:256, hydrogen peroxide 3%
# [8] = system: Staph. aureus; experiment: MIC and FIC of chemical disinfectants and EDTA-Tris; format: cell-based, Staphylococcus aureus
# Procedure: as §5, §6
# [9] = system: Ps. aeruginosa; experiment: as above; format: cell-based, Pseudomonas aeruginosa
# Procedure: as §5, §6
# [10] = system: P. mirabilis; experiment: as above; format: cell-based, Proteus mirabilis
# Procedure: as §5, §6
# [11] = system: E. coli; experiment: MIC of commercial chemical disinfectants or EDTA-Tris; format: cell-based; conditions: 1 x stock solutions as in footnote of Table 5
# [12] = system: S. enteritidis; experiment: MIC and FIC of chemical disinfectants and EDTA-Tris; format: cell-based
# Procedure: as §5, §6
# [13] = system: S. typhimurium 6578 (parent strain); experiment: as above; format: cell-based
# Procedure: as §5, §6
# [14] = system: S. typhimurium Avian (avian strain); experiment: as above; format: cell-based
# Procedure: as §5, §6
# [15] = system: S. typhimurium DT104 (multiple antibiotic resistant strain); experiment: as above; format: cell-based
# Procedure: as §5, §6
# [16] = system: S. typhimurium TRC1 (mar mutant); format: cell-based
# Procedure: as §5, §6
# [17] = system: B subtilis; experiment: FIC of chemical disinfectants and EDTA-Tris; format: cell-based; conditions: chemical disinfectant and EDTA-Tris
# Procedure: as §5, §6
# [18] = system: E. coli Av; experiment: FIC of chemical disinfectants and EDTA-Tris; format: cell-based; conditions: chemical disinfectant and EDTA-Tris
# Procedure: as §5, §6
# [19] = system: E. coli V-1; experiment: FIC of chemical disinfectants and EDTA-Tris; format: cell-based; conditions: chemical disinfectant and EDTA-Tris
# Procedure: as §5, §6
# [20] = system: Gram-negative bacteria; experiment: EDTA-Tris disinfectant combinations, summary; format: cell-based; conditions: most of the Gram-negative bacteria
# Procedure: as §5, §6
# Fractional inhibitory concentrations for EDTA-Tris disinfectant combinations (synergistic, additive, or antagonistic reactions) were determined for the test organisms. […]
# [21] = system: Gram-positive organisms; experiment: EDTA-Tris disinfectant combinations, summary; format: cell-based
# Procedure: as §5, §6
# [22] = system: Staphylococcus aureus; experiment: Antibiotic resistance profile; format: cell-based; conditions: Staphylococcus aureus test strain; further: key: R = resistant; I = intermediate; S = sensitive
# [23] = system: Pseudomonas aeruginosa; experiment: Antibiotic resistance profile; format: cell-based; conditions: Pseudomonas aeruginosa test strain; further: key: R = resistant; I = intermediate; S = sensitive
# [24] = system: Enterococcus faecalis; experiment: Antibiotic resistance profile; format: cell-based; conditions: Enterococcus faecalis test strain; further: key: R = resistant; I = intermediate; S = sensitive
# [25] = system: Staphylococcus aureus; experiment: Minimal Bactericidal Concentration (MBC), EDTA and neomycin in 50 mM Tris; format: cell-based
# [26] = system: Pseudomonas aeruginosa; experiment: as above; format: cell-based
# [27] = system: Enterococcus faecalis; experiment: as above; format: cell-based
# [28] = system: Aeromonas hydrophila; experiment: MIC and FIC of EDTA in 50 mM Tris and neomycin, Aeromonas isolated from ulcerated fish; format: cell-based; conditions: A. hydrophila
# Procedure: as §2, §3, §4, §5, §6
# [29] = 1 x stock solutions as in footnote of Table 5
# [30] = chemical disinfectant and EDTA-Tris
# [31] = 1 x stock solutions as in footnote of Table 6
compound,measurement,setting,value
"NCC[C@H](O)C(=O)N[C@@H]1C[C@H](N)[C@@H](O[C@H]2O[C@H](CN)[C@@H](O)[C@H](O)[C@H]2O)[C@H](O)[C@H]1O[C@H]1O[C@H](CO)[C@@H](O)[C@H](N)[C@H]1O [Amikacin, amikacin, reference compound]","MIC, antibiotic individually administered","[1]; Ps. aeruginosa, alone",1 µg/mL
same,"MIC, antibiotic individually administered","[2]; Staph. aureus, alone",120 µg/mL
same,"MIC, antibiotic individually administered","[3]; Ent. faecalis, alone",2000 µg/mL
same,Healing of visible ulcers,[4],failed to heal visible ulcers
"CC1(C)S[C@@H]2[C@H](NC(=O)[C@H](N)c3ccccc3)C(=O)N2[C@H]1C(=O)O [Ampicillin, ampicillin, reference compound]","MIC, antibiotic individually administered","[1]; Ps. aeruginosa, alone",490 µg/mL
same,"MIC, antibiotic individually administered","[2]; Staph. aureus, alone",240 µg/mL
same,"MIC, antibiotic individually administered","[3]; Ent. faecalis, alone",1 µg/mL
C[C@H]1[C@H](NC(=O)/C(=N\OC(C)(C)C(=O)O)c2csc(N)n2)C(=O)N1S(=O)(=O)O [Azactam],Healing of visible ulcers,[4],failed to heal visible ulcers
CCN1CCN(c2cc3c(cc2F)c(=O)c(C(=O)O)cn3C2CC2)CC1 [Baytril],Healing of visible ulcers,[4],failed to heal visible ulcers
"O=C(N[C@H](CO)[C@H](O)c1ccc([N+](=O)[O-])cc1)C(Cl)Cl [Chloramphenicol, chloramphenicol, reference compound]","MIC, antibiotic individually administered","[2]; Staph. aureus, alone",390 µg/mL
same,"MIC, antibiotic individually administered","[3]; Ent. faecalis, alone",400 µg/mL
"O=C(O)CN(CCN(CC(=O)O)CC(=O)O)CC(=O)O [EDTA, ethylenediaminetetracetic acid]","MIC, individually administered EDTA","[1]; Ps. aeruginosa, EDTA in 50 mM Tris, alone",1250 µM
same,MIC,"[1]; Pseudomonas aeruginosa, read-out: MIC, individually administered EDTA",1250 µM
same,"MIC, individually administered EDTA","[2]; Staph. aureus, EDTA in 50 mM Tris, alone",1000 µM
same,MIC,"[2]; Staphylococcus aureus, read-out: MIC, individually administered EDTA",1000 µM
same,"MIC, individually administered EDTA","[3]; Ent. faecalis, EDTA in 50 mM Tris, alone",15630 µM
same,MIC,"[3]; Enterococcus faecalis, read-out: MIC, individually administered EDTA",15600 µM
same,"MIC, EDTA in 50 mM Tris alone",[5],<0.49
same,"MIC, EDTA in 50 mM Tris alone",[6],15.6
OO [Hydrogen peroxide],MIC,[7],0.05 dilution of stock solution
same,MIC,[8]; [29],0.02 dilution of stock solution
same,FIC,[8]; [30],1.48
same,Type of reaction (FIC class),[8]; [30],B (Antagonistic reaction (FIC > 1.0))
same,MIC,[9]; [29],0.09 dilution of stock solution
same,FIC,[9]; [30],0.37
same,Type of reaction (FIC class),[9]; [30],C (Synergistic reaction (FIC < 0.5))
same,MIC,[10]; [29],0.19 dilution of stock solution
same,FIC,[10]; [30],0.37
same,Type of reaction (FIC class),[10]; [30],C (Synergistic reaction (FIC < 0.5))
same,MIC,[11],0.12 dilution of stock solution
same,MIC,[12]; [31],0.005 dilution of stock solution
same,FIC,[12]; [30],0.38
same,Type of reaction (FIC class),[12]; [30],C (Synergistic reaction (FIC < 0.5))
same,MIC,[13]; [31],0.005 dilution of stock solution
same,FIC,[13]; [30],0.5
same,Type of reaction (FIC class),[13]; [30],D (Synergistic reaction (FIC <: 0.5))
same,MIC,[14]; [31],0.005 dilution of stock solution
same,FIC,[14]; [30],0.63
same,Type of reaction (FIC class),[14]; [30],C (Additive reaction (FIC :> 0.5 to < 1.0))
same,MIC,[15]; [31],0.005 dilution of stock solution
same,FIC,[15]; [30],0.75
same,Type of reaction (FIC class),[15]; [30],C (Additive reaction (FIC :> 0.5 to < 1.0))
same,MIC,[16]; [31],0.005 dilution of stock solution
same,FIC,[16]; [30],0.5
same,Type of reaction (FIC class),[16]; [30],D (Synergistic reaction (FIC <: 0.5))
same,FIC,[17],1.0
same,Type of reaction (FIC class),[17],B (Additive reaction (FIC > 0.5 to < 1.0))
same,FIC,[18],0.50
same,Type of reaction (FIC class),[18],A (Synergistic reaction (FIC ˜ 0.5))
same,FIC,[19],0.53
same,Type of reaction (FIC class),[19],C (Additive reaction (FIC > 0.5 to < 1.0))
same,Effect of EDTA-Tris on the antimicrobial effect of the disinfectant,[20],potentiated (synergistic or additive)
same,Effect of EDTA-Tris on the antimicrobial effect of the disinfectant,[21],did not react uniformly
"CN(C)[C@@H]1C(O)=C(C(N)=O)C(=O)[C@@]2(O)C(O)=C3C(=O)c4c(O)cccc4[C@@](C)(O)[C@H]3[C@H](O)[C@@H]12 [Oxytetracycline, oxytetracycline, reference compound]","MIC, antibiotic individually administered","[1]; Ps. aeruginosa, alone",3 µg/mL
same,"MIC, antibiotic individually administered","[2]; Staph. aureus, alone",0.1 µg/mL
same,"MIC, antibiotic individually administered","[3]; Ent. faecalis, alone",50 µg/mL
"CN[C@H](CC(C)C)C(=O)N[C@H]1C(=O)N[C@@H](CC(N)=O)C(=O)N[C@H]2C(=O)N[C@H]3C(=O)N[C@H](C(=O)N[C@H](C(=O)O)c4cc(O)cc(O)c4-c4cc3ccc4O)[C@H](O)c3ccc(c(Cl)c3)Oc3cc2cc(c3O[C@@H]2O[C@H](CO)[C@@H](O)[C@H](O)[C@H]2O[C@H]2C[C@](C)(N)[C@H](O)[C@H](C)O2)Oc2ccc(cc2Cl)[C@H]1O [Va, vancomycin]",Antibiotic resistance profile,[22],S
same,Antibiotic resistance profile,[23],R
same,Antibiotic resistance profile,[24],R
gentamicin [Gm],Antibiotic resistance profile,[22],S
same,Antibiotic resistance profile,[23],I
same,Antibiotic resistance profile,[24],R
neomycin [reference compound],Antibiotic resistance profile,[22],R
same,Antibiotic resistance profile,[23],R
same,Antibiotic resistance profile,[24],R
same,"MIC, antibiotic individually administered","[1]; Ps. aeruginosa, alone",1000 µg/mL
same,"MIC, antibiotic individually administered","[2]; Staph. aureus, alone",3130 µg/mL
same,"MIC, antibiotic individually administered","[3]; Ent. faecalis, alone",3130 µg/mL
same,Decrease of MBC value when combined compared to individually administered,"[25]; Staph. aureus, EDTA and neomycin combined",about 50% and 50%
same,"MBC, neomycin co-administered","[25]; Staphylococcus aureus, co-administered with EDTA in 50 mM Tris",1560 µg/mL
same,"MBC, neomycin individually administered","[25]; Staphylococcus aureus, in 50 mM Tris",3130 µg/mL
same,Decrease of MBC value when combined compared to individually administered,"[26]; Ps. aeruginosa, EDTA and neomycin combined",99.2%
same,"MBC, neomycin co-administered","[26]; Pseudomonas aeruginosa, co-administered with EDTA in 50 mM Tris",40 µg/mL
same,"MBC, neomycin individually administered","[26]; Pseudomonas aeruginosa, in 50 mM Tris",5000 µg/mL
same,Decrease of MBC value when combined compared to individually administered,"[27]; Ent. faecalis, EDTA and neomycin combined",75%
same,"MBC, neomycin co-administered","[27]; Enterococcus faecalis, co-administered with EDTA in 50 mM Tris",6250 µg/mL
same,"MBC, neomycin individually administered","[27]; Enterococcus faecalis, in 50 mM Tris",25000 µg/mL
same,"MIC, neomycin alone",[5],12.5 µg/mL
same,"MIC, neomycin alone",[28],200 µg/mL
same,"MIC, neomycin alone",[6],12.5 µg/mL
